Measurements: US9115088B2, “Anti-malarial agents” (MERCK PATENT GMBH, priority 2012, dated 2015)
Structures can show the parent of a compound that is named as a salt. Where two headings read alike, the source gives them in different places.

What was measured:
[1] = tested on: Plasmodium falciparum strain 3D7; assay: Plasmodium falciparum 3D7 growth inhibition, SYBRgreen fluorescence assay; format: cell-based; conditions: minimum of 3 independent experiments, read-out: EC50 (μM) for Pf 3D7
Procedure: Parasite cultures and cytotoxicity assay methodology for Plasmodium falciparum. Cultures of the widely-used malaria reference strain of chloroquinine-sensitive Plasmodium falciparum strain 3D7 were maintained in a 5% suspension of human red blood cells cultured in RPMI 1640 medium supplemented with 0.5% Albumax II (available from Gibco Life Technologies, San Diego, Calif.), 12 mM sodium bicarbonate, 0.2 mM hypoxanthine, (pH 7.3), and 20 mg/litre gentamicin at 37° C., in an atmosphere of 1% O2, 3% CO2 with a gas balance of nitrogen. […] Mefloquine was used as a drug control to monitor the quality of the assay (Z′=0.6 to 0.8, where Z′ is a measure of the discrimination between the positive and negative controls on a screen plate). Dose-response curves were determined from a minimum of 3 independent experiments. Compound bioactivity was expressed as EC50, the effective concentration of compound causing 50% parasite death.

[2] = tested on: GFP-transfected Plasmodium berghei ANKA strain; assay: Plasmodium berghei mouse model, standard Peter's four-day test; format: in vivo; conditions: NMRI female mice, oral, 1 mg/kg 4x (once a day for four days); for % Reduction in parasitaemia: parasitaemia 24 h after last dose
Text: Plasmodium species that lead to human malarial infection are essentially unable to infect non-primate animal models. Rodent models as antimalarial drug discovery efficacy models for compound screening have been extensively used and validated for use through the identification of several antimalarial drugs such as mefloquine, and artemisinin derivatives. Such mouse models, including the Plasmodium berghei mouse model are an integral part of the drug discovery and development pathway. […] In particular experimental results have shown that a compound of formula (I) has improved potency, expressed as ED90, the dose required to eradicate 90% of the target infection [ED90 of 0.3-0.1 mg/kg], versus existing anti-malarial drugs.
Methodology. Using the standard Peter's test in NMRI female mice infected with GFP-transfected Plasmodium berghei ANKA strain were used. Test compounds were dosed orally once a day for four days at nine dose levels ([…], 0.03, 0.1, 0.3, 1, 3, 10, 30 mg/kg) and parasitaemia assessed 24 h after the last dose to determine ED90. The test protocol is described in detail Nature, 2004, 430, 900-904, the contents of which are included herein by reference.

[3] = Dynamic vapour sorption (DVS) moisture sorption; format: physicochemical; conditions: for hygroscopicity (DVS): 25° C.; for water uptake (DVS): 80% R.H./25° C.
Procedure: The moisture sorption of compounds of the invention was measured using a SMS (Surface Measurement Systems) DVS Intrinsic. The relative humidity at 25° C. was calibrated against deliquescence point of LiCl, Mg(NO3)2 and KCl. Parameters for DVS test are listed below. [table]

[4] = Thermogravimetric analysis (TGA); format: physicochemical; conditions: 10° C./min; example 1A heated to ~120° C., example 2 to ~150° C.
Procedure: Thermogravimetric Analysis (TGA) of compounds of the invention was conducted at 10° C./min ramping form room temperature to desired temperature in open platinum pans using at TA Instruments Q5000 TGA. The temperature was calibrated using nickel and weight using TA-supplied standard weights and verified against calcium oxalate monohydrate dehydration and decomposition. Typical parameters for TGA are described in Table 5. [table]

[5] = tested on: sporogonic development in the mosquito; assay: Standard membrane feeding assay (SMFA); format: in vivo; conditions: preliminary results
Text: The standard membrane feeding assay (SMFA) is used to test the potential effects of compounds or drugs on sporogonic development in the mosquito and it is used to asses their potential for malaria transmission blocking in vivo. The test protocol is described in detail at Antimicrobial Agents and Chemotherapy, 2012, 56 3544-3548 and PLoS ONE 7(8): e42821, the contents of which are included herein by reference.

Plasmodium falciparum = assay: P. falciparum SCID mouse model; format: in vivo; conditions: preliminary results
Text: Compounds can be further assessed using a murine model of Plasmodium falciparum malaria (the so-called P. falciparum SCID mouse model). The murine Plasmodium falciparum models require the engrafment of mice with human erythrocytes. The use NODscidlL2Rγ^null mice engrafted with human erythrocytes and competent P. falciparum strains have been validated for the preclinincal evaluation of antimalarials. The test protocol is described in detail at Antimicrobial Agents and Chemotherapy, 2009, 53 4533-4536, the contents of which are included herein by reference.

[6] = Plasmodium falciparum, 3D7, concentration causing 50% parasite death
[7] = concentration causing 50% parasite death

Row | Structure (SMILES) | EC50 [1, 6] [µM] | Mean Survival [2] [days] | % Reduction in parasitaemia [2] [%] | EC50 [1, 7] [µM] | also measured
1 | O=C(NCCN1CCCC1)c1cc(-c2ccc(CN3CCS(=O)(=O)CC3)cc2)nc2ccc(F)cc12 [Example 9, 2-(4-((1,1-dioxidothiomorpholino)methyl)phenyl)-6-fluoro-N-(2-(pyrrolidin-1-yl)ethyl)quinoline-4-carboxamide] | 0.0006 | 7 | 99.0 |  | 
2 | O=C(NCCN1CCCC1)c1cc(-c2ccc(CN3CCOCC3)cc2Cl)nc2ccc(F)cc12 [Example 11, 2-(2-chloro-4-(morpholinomethyl)phenyl)-6-fluoro-N-(2-(pyrrolidin-1-yl)ethyl)quinoline-4-carboxamide; fumaric acid salt] | 0.003 |  |  |  | 
3 | O=C(NCCN1CCCC1)c1cc(-c2ccc(CN3CCOCC3)cc2)nc2ccc(F)cc12.O=C(O)/C=C/C(=O)O [Example 2, 6-Fluoro-2-[4-(morpholinomethyl)phenyl]-N-(2-pyrrolidin-1-ylethyl)quinoline-4-carboxamide; fumaric acid salt] |  |  |  | 0.007 | solid form change post DVS testing [3]: No solid form change; hygroscopicity (DVS) [3]: slightly hygroscopic; water uptake (DVS) [3]: ~1.2%; weight loss on heating (TGA) [4]: negligible weight loss
4 | O=C(NCCN1CCCC1)c1cc(-c2ccc(CN3CCOCC3)cc2)nc2ccc(Cl)cc12 [Example 3, 6-chloro-2-[4-(morpholinomethyl)phenyl]-N-(2-pyrrolidin-1-ylethyl)quinoline-4-carboxamide] | 0.001 |  |  |  | 
5 | O=C(NCCN1CCCC1)c1cc(-c2ccc(CN3CCOCC3)cc2)nc2ccccc12 [Example 4, 2-[4-(morpholinomethyl)phenyl]-N-(2-pyrrolidin-1-ylethyl)quinoline-4-carboxamide] |  |  |  | 0.001 | 
6 | O=C(NCCN1CCCC1)c1cc(-c2ccc(CN3CCOCC3)c(F)c2)nc2ccc(F)cc12 [Example 6, 6-fluoro-2-(3-fluoro-4-(morpholinomethyl)phenyl)-N-(2-(pyrrolidin-1-yl)ethyl)quinoline-4-carboxamide] | 0.0007 | 11 | 99.8 |  | 
7 | O=C(NCCN1CCCC1)c1cc(-c2cc(F)c(CN3CCOCC3)c(F)c2)nc2ccc(F)cc12 [Example 8, 2-(3,5-difluoro-4-(morpholinomethyl)phenyl)-6-fluoro-N-(2-(pyrrolidin-1-yl)ethyl)quinoline-4-carboxamide] | 0.004 |  |  |  | 
8 | O=C(NCCN1CCCC1)c1cc(-c2ccc(CN3CCOCC3)cc2)nc2ccccc12 [Example 5, 2-[4-(morpholinomethyl)phenyl]-N-(2-pyrrolidin-1-ylethyl)quinoline-4-carboxamide; fumaric acid salt] |  |  |  | 0.003 | 
9 | O=C(NCCN1CCCC1)c1cc(-c2ccc(CN3CCOCC3)cc2)nc2ccc(F)cc12 [Example 1, 6-Fluoro-2-[4-(morpholinomethyl)phenyl]-N-(2-pyrrolidin-1-ylethyl)quinoline-4-carboxamide] |  | 14 | 99.9 | 0.001 | in vivo behaviour in standard membrane feeding assay [5]: desirable in vivo behaviour; in vivo behaviour in the P. falciparum SCID mouse model (Plasmodium falciparum): desirable in vivo behaviour; solid form change post DVS testing [3]: No solid form change; hygroscopicity (DVS) [3]: non-hygroscopic; water uptake (DVS) [3]: 0.1%; weight loss on heating (TGA) [4]: < 0.1 wt %
10 | O=C(NCCN1CCCC1)c1cc(-c2ccc(CN3CCOCC3)cc2F)nc2ccc(F)cc12 [Example 7, 6-fluoro-2-(2-fluoro-4-(morpholinomethyl)phenyl)-N-(2-(pyrrolidin-1-yl)ethyl)quinoline-4-carboxamide] | 0.0005 | 11 | 99.9 |  | 
